Literature values in US20030211177A1, “Method and composition for treatment and prevention of alopecia” (priority 2003, published 2003).

System: patients' hair (alopecia)
Conditions: Propecia literature

SMILES: CC(C)(C)NC(=O)[C@H]1CC[C@H]2[C@@H]3CC[C@H]4NC(=O)C=C[C@]4(C)[C@H]3CC[C@]12C [Propecia ®, finasteride]
- Excellent Improvement (percent of subjects): 0%
- Moderate Improvement (percent of subjects): 4%
- No Improvement (percent of subjects): 62%
- Slight Improvement (percent of subjects): 34%
